System: 313798-341-R-J2-PDC spheroids, viability
Experiment: Anticancer human tumor 313798-341-R-J2-PDC patient-derived cervical squamous cell carcinoma cell line growth inhibition [PI3K]
Conditions: spheroids with HUVEC and MSC; for IC50: curve of first compound; for viability, T/C: stronger effect = lower value
Summary of the method: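 Tumor cells grown as multi-cell spheroids with HUVEC endothelial cells and MSC fibroblast-like stroma were treated with targeted agents combined with inavolisib, alpelisib, duvelisib or copanlisib. Doses fell in half-log steps from near clinical Cmax, else from 10 microM. Viability was measured.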

[1] = second compound 0.00316 µM, first compound 0.0316 µM
[2] = second compound 0.00316 µM, first compound 0.1 µM
[3] = second compound 0.00316 µM, first compound 0.316 µM
[4] = second compound 0.00316 µM, first compound 1 µM
[5] = second compound 0.00316 µM, first compound 3.16 µM
[6] = second compound 0.00316 µM, first compound 10 µM
[7] = second compound 0.01 µM, first compound 0.0316 µM
[8] = second compound 0.01 µM, first compound 0.1 µM
[9] = second compound 0.01 µM, first compound 0.316 µM
[10] = second compound 0.01 µM, first compound 1 µM
[11] = second compound 0.01 µM, first compound 3.16 µM
[12] = second compound 0.01 µM, first compound 10 µM
[13] = second compound 0.0316 µM, first compound 0.0316 µM
[14] = second compound 0.0316 µM, first compound 0.1 µM
[15] = second compound 0.0316 µM, first compound 0.316 µM
[16] = second compound 0.0316 µM, first compound 1 µM
[17] = second compound 0.0316 µM, first compound 3.16 µM
[18] = second compound 0.0316 µM, first compound 10 µM
[19] = second compound 0.1 µM, first compound 0.0316 µM
[20] = second compound 0.1 µM, first compound 0.1 µM
[21] = second compound 0.1 µM, first compound 0.316 µM
[22] = second compound 0.1 µM, first compound 1 µM
[23] = second compound 0.1 µM, first compound 3.16 µM
[24] = second compound 0.1 µM, first compound 10 µM
[25] = second compound 0.316 µM, first compound 0.0316 µM
[26] = second compound 0.316 µM, first compound 0.1 µM
[27] = second compound 0.316 µM, first compound 0.316 µM
[28] = second compound 0.316 µM, first compound 1 µM
[29] = second compound 0.316 µM, first compound 3.16 µM
[30] = second compound 0.316 µM, first compound 10 µM
[31] = second compound 1 µM, first compound 0.0316 µM
[32] = second compound 1 µM, first compound 0.1 µM
[33] = second compound 1 µM, first compound 0.316 µM
[34] = second compound 1 µM, first compound 1 µM
[35] = second compound 1 µM, first compound 3.16 µM
[36] = second compound 1 µM, first compound 10 µM
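Further: spheroids exposed to compounds for seven days.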
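Wherever viability, T/C is given: 100% = DMSO vehicle control viability.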

For `C[C@@H](NC(=O)c1ncnc(N)c1Cl)c1ncc(C(=O)Nc2cc(C(F)(F)F)c(Cl)cn2)s1` + CC(Nc1ccc2c(c1)OCCn1cc(N3C(=O)OCC3C(F)F)nc1-2)C(N)=O, the IC50 (second compound 0.00316 µM) was 5.94 µM, the IC50 (second compound 0.01 µM) was 5.98 µM and the IC50 (second compound 0.0316 µM) was 5.9 µM. It also gave an IC50 (second compound 0.1 µM) of 4.72 µM, an IC50 (second compound 0.316 µM) of 1.91 µM and an IC50 (second compound 1 µM) of less than 0.0316 µM. For the same compound, the viability, T/C [1] was 101%, the viability, T/C [2] was 106% and the viability, T/C [3] was 103%. The viability, T/C [4] was 95.4%, the viability, T/C [5] was 110% and the viability, T/C [6] was 6.06%. For the same compound, the viability, T/C [7] was 110%, the viability, T/C [8] was 105% and the viability, T/C [9] was 95.1%. The viability, T/C [10] was 105%, the viability, T/C [11] was 110% and the viability, T/C [12] was 5.51%. For the same compound, the viability, T/C [13] was 99.9%, the viability, T/C [14] was 103% and the viability, T/C [15] was 110%. The viability, T/C [16] was 114%, the viability, T/C [17] was 99.6% and the viability, T/C [18] was 8.08%. It also gave a viability, T/C [19] of 81.9%, a viability, T/C [20] of 78% and a viability, T/C [21] of 91.8%. It also gave a viability, T/C [22] of 92.7%, a viability, T/C [23] of 73.3% and a viability, T/C [24] of 6.24%. For the same compound, the viability, T/C [25] was 55.2%, the viability, T/C [26] was 54.6% and the viability, T/C [27] was 61.6%. The viability, T/C [28] was 66.5%, the viability, T/C [29] was 42.6% and the viability, T/C [30] was 9.28%. For the same compound, the viability, T/C [31] was 51.8%, the viability, T/C [32] was 41.5% and the viability, T/C [33] was 53.4%. For the same compound, the viability, T/C [34] was 45.4%, the viability, T/C [35] was 29.3% and the viability, T/C [36] was 14.3%.
`CC(Cn1ccc(-c2ccc(C#N)c(Cl)c2)n1)NC(=O)c1cc(C(C)O)[nH]n1` (stereo unspecified) + CC(Nc1ccc2c(c1)OCCn1cc(N3C(=O)OCC3C(F)F)nc1-2)C(N)=O was tested, and the IC50 (second compound 0.00316 µM) was greater than 10 µM, the IC50 (second compound 0.01 µM) was greater than 10 µM and the IC50 (second compound 0.0316 µM) was greater than 10 µM. It also gave an IC50 (second compound 0.1 µM) greater than 10 µM, an IC50 (second compound 0.316 µM) greater than 10 µM and an IC50 (second compound 1 µM) of 4.5 µM. For the same compound, the viability, T/C [1] was 102%, the viability, T/C [2] was 107% and the viability, T/C [3] was 98.3%. For the same compound, the viability, T/C [4] was 101%, the viability, T/C [5] was 105% and the viability, T/C [6] was 99.8%. It also gave a viability, T/C [7] of 106%, a viability, T/C [8] of 103% and a viability, T/C [9] of 109%. The viability, T/C [10] was 103%, the viability, T/C [11] was 100% and the viability, T/C [12] was 89.1%. It also gave a viability, T/C [13] of 122%, a viability, T/C [14] of 111% and a viability, T/C [15] of 106%. For the same compound, the viability, T/C [16] was 113%, the viability, T/C [17] was 96.7% and the viability, T/C [18] was 97.2%. It also gave a viability, T/C [19] of 109%, a viability, T/C [20] of 107% and a viability, T/C [21] of 102%. It also gave a viability, T/C [22] of 117%, a viability, T/C [23] of 99.1% and a viability, T/C [24] of 82.3%. The viability, T/C [25] was 86.7%, the viability, T/C [26] was 86.3% and the viability, T/C [27] was 78.8%. The viability, T/C [28] was 84.5%, the viability, T/C [29] was 79.9% and the viability, T/C [30] was 60.8%. It also gave a viability, T/C [31] of 64.8%, a viability, T/C [32] of 55.5% and a viability, T/C [33] of 63.7%. The viability, T/C [34] was 58.6%, the viability, T/C [35] was 54.2% and the viability, T/C [36] was 40.5%.
`CCN1CCN(Cc2ccc(Nc3ncc(F)c(-c4cc(F)c5nc(C)n(C(C)C)c5c4)n3)nc2)CC1` + CC(Nc1ccc2c(c1)OCCn1cc(N3C(=O)OCC3C(F)F)nc1-2)C(N)=O gave an IC50 (second compound 0.00316 µM) greater than 1 µM, an IC50 (second compound 0.01 µM) greater than 1 µM and an IC50 (second compound 0.0316 µM) greater than 1 µM. The IC50 (second compound 0.1 µM) was greater than 1 µM, the IC50 (second compound 0.316 µM) was greater than 1 µM and the IC50 (second compound 1 µM) was greater than 1 µM. For the same compound, the viability, T/C (second compound 0.00316 µM, first compound 0.00316 µM) was 102%, the viability, T/C (second compound 0.00316 µM, first compound 0.01 µM) was 104% and the viability, T/C [1] was 99.3%. For the same compound, the viability, T/C [2] was 105%, the viability, T/C [3] was 123% and the viability, T/C [4] was 131%. It also gave a viability, T/C (second compound 0.01 µM, first compound 0.00316 µM) of 94.9%, a viability, T/C (second compound 0.01 µM, first compound 0.01 µM) of 102% and a viability, T/C [7] of 96.8%. For the same compound, the viability, T/C [8] was 125%, the viability, T/C [9] was 138% and the viability, T/C [10] was 120%. For the same compound, the viability, T/C (second compound 0.0316 µM, first compound 0.00316 µM) was 103%, the viability, T/C (second compound 0.0316 µM, first compound 0.01 µM) was 104% and the viability, T/C [13] was 117%. For the same compound, the viability, T/C [14] was 115%, the viability, T/C [15] was 133% and the viability, T/C [16] was 110%. For the same compound, the viability, T/C (second compound 0.1 µM, first compound 0.00316 µM) was 115%, the viability, T/C (second compound 0.1 µM, first compound 0.01 µM) was 103% and the viability, T/C [19] was 90.2%. It also gave a viability, T/C [20] of 107%, a viability, T/C [21] of 101% and a viability, T/C [22] of 86.1%. For the same compound, the viability, T/C (second compound 0.316 µM, first compound 0.00316 µM) was 86.1%, the viability, T/C (second compound 0.316 µM, first compound 0.01 µM) was 76.7% and the viability, T/C [25] was 71.4%. The viability, T/C [26] was 75.7%, the viability, T/C [27] was 77.7% and the viability, T/C [28] was 61.7%. The viability, T/C (second compound 1 µM, first compound 0.00316 µM) was 57.3%, the viability, T/C (second compound 1 µM, first compound 0.01 µM) was 48.3% and the viability, T/C [31] was 52.3%. The viability, T/C [32] was 56.8%, the viability, T/C [33] was 52.7% and the viability, T/C [34] was 58%.
For `CC1(C)CCC(CN2CCN(c3ccc(C(=O)NS(=O)(=O)c4ccc(NCC5CCOCC5)c([N+](=O)[O-])c4)c(Oc4cnc5[nH]ccc5c4)c3)CC2)=C(c2ccc(Cl)cc2)C1`, the viability, T/C (compound 0.0316 µM) was 101% [middle of 4 runs], the viability, T/C (compound 0.1 µM) was 97.8% [middle of 4 runs] and the viability, T/C (compound 0.316 µM) was 101% [middle of 4 runs]. The viability, T/C (compound 1 µM) was 94.4% [middle of 4 runs] and the viability, T/C (compound 3.16 µM) was 78.9% [middle of 4 runs].

— PubChem BioAssay AID1963982 (Molecular Pharmacology Branch, DTP, NCI, 2024)
